Reference: patent US9090701B2, “Methods of detecting oxidized calcium/calmodulin dependent protein kinase II” (University of Iowa Research Foundation, priority 2008, dated 2015)

What was measured:
cardiomyocytes [1] = experiment: Intracellular calcium concentration (Fura-2 imaging); format: cell-based, mouse; conditions: compared to Iso, cardiomyocytes from WT and p47−/− mice, 100 nM
Procedure: Intracellular calcium concentration was assessed by Fura-2 fluorescence ratio imaging using a microscopic digital imaging system (Photon Technology International), as described previously (Sharma e.g., 1995). Briefly, cultured primary cardiac myocytes were loaded with the Ca^2+-specific dye Fura-2 by incubating with 1 μM Fura-2AM (Molecular Probes) at 37° C. for 30 minutes. [Ca^2+]t values over the entire cell were calculated from the 340/380-nm ratio images of Fura-2 fluorescence captured before, during and after Iso (100 nM) or AngII (100 nM) stimulation.
(§1) In order to validate the connection between AngII and ROS in this experimental model, isolated cardiomyocytes from WT and p47^−/− mice were treated with 100 nM AngII and monitored production of ROS by Imaging DHE, a fluorescent reporter for superoxide and hydrogen peroxide (FIG. 7C). Wild-type cardiomyocytes were incubated with fura-2 AM, a cell-permeant calcium indicator to observe changes in intracellular Ca^2+ ([Ca^2+]i).

oxidized CaMKII = experiment: Oxidized / phosphorylated CaMKII in hearts of treated mice (immunostaining, immunoblot); format: in vivo
Procedure: Mice were anesthetized with ketamine (87.5 mg/kg) and xylazine (12.5 mg/kg), and a small incision was made in the skin near the spine, approximately 1 cm above the hip. Minipumps containing saline or AngII (3 mg/kg/day) were inserted and the skin was sutured closed. Other mice were given, daily injections of Iso (30 mg/kg/day, intraperitoneal) for 7 days. Animals were then sacrificed and the heart was removed, fixed, and embedded in paraffin. Transverse heart sections of 5 μm thickness were made. To confirm the identity of cardiomyocytes, heart sections were immunolabeled with alpha-actinin Ig (cardiomyocyte-specific marker). Only sections with >90% cardiomyocytes were used in experiments. (See FIG. 13.) Paraffin was removed, and TUNEL staining was performed using In Situ cell death detection kits, TMR Red (Roche). Nuclei were co-stained with DAPI. To determine percent of TUNEL positive nuclei, whole heart sections were divided into four quadrants and one image was taken at random within each quadrant. In the case of sections from post-MI mice, an average of 50% of the heart quadrants were from portions of the heart adjacent to the MI. An investigator blinded to the identity and treatment of the mice counted the number of total and TUNEL positive cells in each image.
Other sections were treated with either a general CaMKII antibody or oxidized CaMKII antiserum. Nuclei were co-stained with DAPI. Identity of cardiomyocytes was confirmed by co-stain with an antibody against α-actinin. Images were quantified for relative staining intensity using Image J (NIH, USA). Each image was divided into four quadrants, and one rectangular area of equal size and shape was randomly placed within the cytosolic area of each quadrant, excluding DAPI-stained nuclei. Relative intensity of an image was judged to be the mean of the intensity measurements taken in each quadrant. Both the investigators and technical personnel assigned to immunostaining and quantification were blinded to the genetic identity and treatment of the mice in all studies.
To determine the role of CaMKII oxidation In apoptosis, mice were treated with saline, AngII, or isoproterenol (Iso) for one week, and transverse heart, sections from these mice were probed for the production of oxidized CaMKII in vivo. […] Total CaMKII immunoreactivity remained constant regardless of treatment. […] (See FIG. 6).
Homogenized hearts from mice treated with saline, AngII, or Iso, and whole heart lysates were analyzed by immunoblot for oxidized CaMKII.
Methionine oxidation is specifically reversed by MsrA (Weissbach e.g., 2002), so it was hypothesized that MsrA^−/− mice would show enhanced vulnerability to AngII-mediated CaMKII oxidation and apoptosis. In order to test this idea, MsrA^−/− and WT control mice were implanted with AngII or saline elating osmotic mini pumps. […] In order to test if CaMKII oxidation and apoptosis were regulated by NADPH oxidase and MsrA in the setting of myocardial infarction, MsrA^−/−, p47^−/−, and WT mice were subjected to myocardial infarction surgery. […] Myocardial infarction surgery was performed on a larger cohort of MsrA^−/− and WT control mice to determine if increased CaMKII oxidation and apoptosis in MsrA^−/− mice translated into poorer functional outcomes.
To test the specificity of this antiserum, Western blots of isolated CaMKII after no treatment, oxidation with H2O2, or phosphorylation with ATP were performed. CaMKII samples were probed for either total protein using a general CaMKII antibody or for oxidized CaMKII with anti-oxCaMKII antiserum. […] (See FIG. 14A). To test the efficacy of the antiserum in tissue staining, mice were treated with either saline or angiotensin II, an oxidant stimulating agent in cardiac tissue, and stained heart sections and performed immunofluorescent stains for oxidized CaMKII. […] (See FIG. 14B).

cardiomyocytes [2] = experiment: ROS detection with DHE in cardiomyocytes; format: cell-based, mouse; conditions: 100 nM
Procedure: Changes in ROS levels in cultured primary cardiac myocytes after agonist stimulation were measured using the fluorogenic probe dihydroethidium (DHE, 5 μM, Molecular Probes), as previously described (Zimmerman e.g., 2004). DHE fluorescent images were acquired using confocal microscopy (Zeiss LSM510).
as §1

oxCaMKII = experiment: Western blot of blood samples for oxidized CaMKII; format: in vivo, mice; conditions: WT and MsrA−/− mice, sacrificed 6 hours later, N=1 per group
Description: In order to test whether the anti-oxCaMKII antiserum was suitable for detecting increased CaMKII oxidation in blood under disease conditions associated with enhanced oxidative stress, validated mouse models were utilized. […] (See FIG. 15). Western blot of blood samples and ImageJ analysis were used to quantify total and oxidized CaMKII. (See FIG. 15). […] Mice were exposed to cancer cells and treated with either saline or 2DG. Those mice that tailed to develop tumors after 60 days were labeled as controls. (See FIG. 16). Western blot of blood samples and ImageJ analysis were used to quantify total and oxidized CaMKII. (See FIG. 16). […] (See FIG. 16). Mice were divided into four groups based on the presence or absence of cancer and whether or not they received treatment. Western blot of blood samples and ImageJ analysis were used to quantify total and oxidized CaMKII. (See FIG. 18). Both cancer and varied treatments increase blood oxCaMKII in an additive manner.

angiotensin II (DRVYIHPF; Angiotensin-2; UniProt P01019 25-32, looked up) [AngII, oxidant stimulating agent in cardiac tissue]
Increases in [Ca2+]i (cardiomyocytes [1]): significantly less | CaMKII oxidation in hearts (oxidized CaMKII; MsrA−/− mice, vs saline MsrA−/− and control hearts): significantly more CaMKII oxidation | Oxidized CaMKII in heart sections (oxidized CaMKII; WT mice): more oxidized CaMKII than those treated with saline or Iso | Staining for T287-phosphorylated CaMKII in heart sections (oxidized CaMKII; WT mice, AngII 3 mg/kg/day 1 week): increased staining | Oxidized CaMKII in heart sections (oxidized CaMKII; WT mice, listed as angiotensin II): significant staining relative to the control | Oxidized CaMKII in heart sections (oxidized CaMKII; p47−/− mice): did not show increased levels of oxidized CaMKII | Staining for T287-phosphorylated CaMKII in heart sections (oxidized CaMKII; p47−/− mice): unaffected | Oxidized CaMKII in whole heart lysates (immunoblot) (oxidized CaMKII; vs saline or Iso): significantly increased oxidized CaMKII levels | ROS production (cardiomyocytes [2]; WT cardiomyocytes): significant increase in ROS production | ROS production (significant increase) (cardiomyocytes [2]; p47−/− cardiomyocytes): not | Oxidized CaMKII in blood (oxCaMKII): increased oxidized CaMKII
